From patent US20230055705A1, “SUBSTITUTED THIOPHENE CARBOXAMIDES AND DERIVATIVES THEREOF” (Bayer Aktiengesellschaft, priority 2019, published 2023)

Assays:
[1] = system: salicylate responsive promoter sequence of the PR1 (pathogenesis-related protein I) gene (AT2G14610); test: Induction of defense gene expression in Arabidopsis thaliana (PR1 promoter-GFP reporter plants); assay type: in vivo; settings: Arabidopsis thaliana, 72 h, 3rd day after spraying, mock treated leaves set as 1.00, read-out: relative fluorescence value; for fold induction at 75 ppm: 75 ppm of compound
Method: Arabidopsis thaliana reporter plants containing the coding sequence of a green fluorescent protein (GFP) linked to the salicylate responsive promoter sequence of the PR1 (pathogenesis-related protein I) gene (AT2G14610) were grown for five days and then sprayed with compounds. On the 3rd day after spraying, plant fluorescence was assessed with a MacroFluo instrument from Leica Microsystems (Wetzlar, Germany). Fluorescences were quantified with the Meta-Morph Microscopy Automation & Image Analysis Software (Molecular Devices, Sunnyvale, Calif., United States). Background fluorescence in mock treated leaves was set as 1.00.

[2] = system: Colletotrichum lindemuthianum; test: In vivo preventive test on Colletotrichum lindemuthianum (Antrachnose on bean); settings: 144 h, inoculation 72 h after spraying, evaluated 6 days after inoculation, read-out: efficacy; for pest or weed control at 500 ppm: 500 ppm of active ingredient; for pest or weed control at 31 ppm: 31 ppm of active ingredient
Method: (§1) The tested active ingredients were prepared by homogenization in a mixture of acetone/Dimethyl sulfoxide/Tween®, and then diluted with water to obtain the desired active material concentration. The young plants of bean were treated by spraying the active ingredient prepared as described above. Control plants were treated only with an aqueous solution of acetone/Dimethyl sulfoxide/Tween®.
(§2) After 72 hours, the plants were contaminated by spraying the leaves with an aqueous suspension of Colletotrichum lindemuthianum spores. The contaminated bean plants were incubated for 24 hours at 20° C. and at 100% relative humidity and then for 5 days at 20° C. and at 90% relative humidity. The test was evaluated 6 days after the inoculation. 0% means an efficacy which corresponds to that of the control plants while an efficacy of 100% means that no disease was observed.
Compound CMP1 was tested in an in vivo preventive test on Colletotrichum lindemuthianum (Antrachnose on bean) in the same conditions as described in Example F.

[3] = system: Peronospora parasitica; test: In vivo preventive test on Peronospora parasitica (Crucifer downy mildew); settings: Hyaloperonospora parasitica, in Brassica oleracea, 120 h, cabbage, evaluated 5 days after inoculation, read-out: efficacy; for pest or weed control at 31 ppm: 31 ppm of active ingredient; for pest or weed control at 125 ppm: 125 ppm of active ingredient; for pest or weed control at 500 ppm: 500 ppm of active ingredient
Method: as §1, with “cabbage” for “bean”
After 72 hours, the plants were contaminated by spraying the leaves with an aqueous suspension of Peronospora parasitica spores. The contaminated cabbage plants were incubated for 5 days at 20° C. and at 100% relative humidity.
The test was evaluated 5 days after the inoculation. 0% means an efficacy which corresponds to that of the control plants while an efficacy of 100% means that no disease was observed.
Compounds CMP2 and CMP3 were tested in an in vivo preventive test on Peronospora parasitica (Crucifer downy mildew) in the same conditions as described in Example G.

[4] = system: Xanthomonas campestris pv. campestris; test: In vivo preventive test on Xanthomonas campestris pv. campestris (black rot on cabbage); settings: evaluated 8 or 10 days after inoculation, read-out: efficacy; for pest or weed control at 31 ppm: 31 ppm of active ingredient; for pest or weed control at 125 ppm: 125 ppm of active ingredient
Method: The tested active ingredients were prepared by homogenization in a mixture of acetone/Dimethyl sulfoxide/Tween®, and then diluted with water to obtain the desired active material concentration.
The young plants of cabbage were treated by spraying the active ingredient prepared as described above. Control plants were treated only with an aqueous solution of acetone/Dimethyl sulfoxide/Tween®.
After 72 hours, the plants were contaminated by spraying the leaves with an aqueous bacteria suspension of Xanthomonas campestris pv. campestris. The contaminated cabbage plants were incubated for 8 or 10 days at 27° C. at 95% relative humidity.
The test was evaluated 8 or 10 days after the inoculation. 0% means an efficacy which corresponds to that of the control plants while an efficacy of 100% means that no disease was observed. […]
Compounds CMP1, CMP2, CMP3 and CMP4 were tested in an in vivo preventive test on Xanthomonas campestris pv. campestris (black rot on cabbage) in the same conditions as described in Example H.

[5] = system: Uromyces appendiculatus; test: In vivo preventive test on Uromyces appendiculatus (bean rust); settings: 240 h, evaluated 10 days after inoculation, read-out: efficacy; for pest or weed control at 125 ppm: 125 ppm of active ingredient; for pest or weed control at 500 ppm: 500 ppm of active ingredient
Method: as §1
as §2, with “Uromyces appendiculatus” for “Colletotrichum lindemuthianum”, “9” for “5”, “70-80%” for “90%”, “10” for “6”
Compounds CMP5 and CMP6 were tested in an in vivo preventive test on Uromyces appendiculatus (bean rust) in the same conditions as described in Example I.

[6] = system: Pseudomonas syringae pv. tomato; test: In vivo preventive test on Pseudomonas syringae pv. tomato (bacterial speck on tomato); settings: evaluated 5 or 6 days after inoculation, read-out: efficacy; for pest or weed control at 500 ppm: 500 ppm of active ingredient; for pest or weed control at 31 ppm: 31 ppm of active ingredient
Method: as §1, with “tomato” for “bean”
After 72 hours, the plants were contaminated by spraying the leaves with an aqueous bacteria suspension of Pseudomonas syringae pv. tomato. The contaminated tomato plants were incubated for 4 days in saturated atmosphere at 22° C. day/20° C. night—70% HR and then for 1 or 2 days at 22° C. day/20° C. night at 70-80% relative humidity.
The test was evaluated 5 or 6 days after the inoculation. 0% means an efficacy which corresponds to that of the control plants while an efficacy of 100% means that no disease was observed.
Compounds CMP1 and CMP4 were tested in an in vivo preventive test on Pseudomonas syringae pv. tomato (bacterial speck on tomato) in the same conditions as described in Example J.

[7] = LogP by HPLC on reversed phase columns (EEC directive 79/831 Annex V.A8); assay type: physicochemical; settings: reversed phase HPLC columns
Method: In the above tables, measurement of LogP values was performed according to EEC directive 79/831 Annex V.A8 by HPLC (High Performance Liquid Chromatography) on reversed phase columns with the following methods: • ^[a]
Calibration was done with straight-chain alkan2-ones (with 3 to 16 carbon atoms) with known LogP values (measurement of LogP values using retention times with linear interpolation between successive alkanones). Lambda-max-values were determined using UV-spectra from 200 nm to 400 nm and the peak values of the chromatographic signals.

[8] = method [a]: LC-UV, in an acidic range, with 0.1% formic acid in water and acetonitrile as eluent (linear gradient from 10% to 95% acetonitrile)

| SMILES | fold induction at 75 ppm [1] | fold induction at 300 ppm [1] | pest or weed control at 500 ppm [2] [%] | pest or weed control at 31 ppm [3] [%] | pest or weed control at 125 ppm [3] [%] | pest or weed control at 500 ppm [3] [%] | pest or weed control at 31 ppm [4] [%] | pest or weed control at 125 ppm [5] [%] | pest or weed control at 500 ppm [5] [%] | pest or weed control at 500 ppm [6] [%] | chromatographic logP [7, 8] | pest or weed control at 125 ppm [4] [%] | pest or weed control at 31 ppm [2] [%] | pest or weed control at 31 ppm [6] [%] | chromatographic logP ([7]; given in the preparation examples, method not marked) |
| --- | --- | --- | --- | --- | --- | --- | --- | --- | --- | --- | --- | --- | --- | --- | --- |
| CCOC(=O)C(C)N(OC)C(=O)c1sc(Cl)c(Cl)c1Cl (stereo not drawn) [I.108] | > 2 | > 2 | 90 to 100 | 90 to 100 | 90 to 100 | 90 to 100 | 90 to 100 | 90 to 100 | 90 to 100 | 80 to 89 | 4.15 | – | – | – | – |
| COC(=O)C(C)N(OC)C(=O)c1sc(Cl)c(Cl)c1Cl (stereo not drawn) [I.109] | > 2 | > 2 | 90 to 100 | 90 to 100 | 90 to 100 | 90 to 100 | – | 90 to 100 | 90 to 100 | 80 to 89 | 3.72 | 70 to 79 | – | – | – |
| CON(C(=O)c1sc(Cl)c(Cl)c1Cl)C(C)C(=O)O (stereo not drawn) [I.111] | – | > 2 | 70 to 79 | – | 80 to 89 | 90 to 100 | – | 90 to 100 | 90 to 100 | 80 to 89 | 2.83 | 70 to 79 | – | – | – |
| COC(=O)[C@H](C)NC(=S)c1sc(Cl)c(Cl)c1Cl [I.117] | > 2 | > 2 | 90 to 100 | 90 to 100 | 90 to 100 | 90 to 100 | – | 90 to 100 | 90 to 100 | 80 to 89 | 4.62 | – | 70 to 79 | 80 to 89 | – |
| COC(=O)[C@@H](NC(=O)c1sc(Cl)c(Cl)c1Cl)C(C)C [CMP4, reference compound] | – | – | – | – | – | – | – | – | – | – | – | 0 | – | 0 | – |
| CCSC(=O)[C@H](C)NC(=O)c1sc(Cl)c(Cl)c1Cl [I.089] | > 2 | > 2 | 90 to 100 | 90 to 100 | 90 to 100 | 90 to 100 | – | 90 to 100 | 90 to 100 | 90 to 100 | 4.4 | – | – | 90 to 100 | – |
| C[C@H](NC(=O)c1sc(Cl)c(Cl)c1Cl)C(=O)O [CMP1, reference compound] | – | – | – | – | – | – | < 40 | – | – | < 20 | – | – | < 20 | – | – |
| CCNC(=O)[C@@H](NC(=O)c1sc(Cl)c(Cl)c1Cl)C(C)C [I.090] | > 2 | > 2 | 90 to 100 | 90 to 100 | 90 to 100 | 90 to 100 | 70 to 79 | 80 to 89 | 90 to 100 | 90 to 100 | – | – | – | 90 to 100 | – |
| NC(=S)CNC(=O)c1sc(Cl)c(Cl)c1Cl [I.104, N-(2-amino-2-sulfanylideneethyl)-3,4,5-trichlorothiophene-2-carboxamide] | > 2 | > 2 | 80 to 89 | 90 to 100 | 90 to 100 | 90 to 100 | – | 70 to 79 | 90 to 100 | 80 to 89 | 2.53 | – | – | 70 to 79 | 2.53 |
| CNC(=O)[C@H](C)NC(=O)c1sc(Cl)c(Cl)c1Cl [I.091] | – | > 2 | 70 to 79 | 90 to 100 | 90 to 100 | 90 to 100 | – | 80 to 89 | 70 to 79 | – | 2.35 | – | – | – | – |
| CCSC(=O)[C@@H](NC(=O)c1sc(Cl)c(Cl)c1Cl)C(C)C [I.094] | – | > 2 | – | – | – | 90 to 100 | – | – | 90 to 100 | 80 to 89 | – | – | – | – | – |
| CCNC(=O)[C@H](C)NC(=O)c1sc(Cl)c(Cl)c1Cl [I.120] | > 2 | > 2 | 90 to 100 | 90 to 100 | 90 to 100 | 90 to 100 | 80 to 89 | 90 to 100 | 90 to 100 | – | 2.75 | – | 70 to 79 | – | – |
